Measurements reported in US9572760B2, “Uses of compounds and mixtures from Antrodia cinnamomea mycelia” (Simpson Biotech Co., Ltd., priority 2013, dated 2017).

Experiments:
tyrosinase = target: T1, tyrosinase (Mus musculus, UniProt P11344); test: Cellular tyrosinase activity assay (L-DOPA oxidation) in B16F10 cells exposed to UV; format: cell-based, murine; conditions: UV alone 52.55±4.36% increase over non-UV control (3.0±0.5 U/mg protein)
T1 construct: endogenous in cells; host or cells: B16F10 murine melanoma cells (ATCC), total cell lysate
T1 sequence (P11344 19-533): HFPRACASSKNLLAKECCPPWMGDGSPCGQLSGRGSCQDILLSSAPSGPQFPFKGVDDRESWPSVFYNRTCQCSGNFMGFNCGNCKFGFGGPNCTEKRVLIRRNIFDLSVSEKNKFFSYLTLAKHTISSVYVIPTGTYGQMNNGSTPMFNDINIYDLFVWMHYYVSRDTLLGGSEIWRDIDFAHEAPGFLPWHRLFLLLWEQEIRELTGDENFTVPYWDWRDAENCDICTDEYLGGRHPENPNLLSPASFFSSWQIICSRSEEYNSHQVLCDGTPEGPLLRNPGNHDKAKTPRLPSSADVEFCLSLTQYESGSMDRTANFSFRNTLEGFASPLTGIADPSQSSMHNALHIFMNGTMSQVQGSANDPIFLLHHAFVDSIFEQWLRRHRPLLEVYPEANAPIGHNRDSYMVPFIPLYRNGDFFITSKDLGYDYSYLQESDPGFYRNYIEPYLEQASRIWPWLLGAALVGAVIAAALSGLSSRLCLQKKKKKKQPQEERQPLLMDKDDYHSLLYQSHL
Source text: The dermal fibroblast cell line CG1639 was obtained from the BCRC (Bioresource Collection and Research Center) and cultured in Dulbecco's modified Eagle media (DMEM, Gibco by Invitrogen) with 1% antibiotic antimycotic (Gibco by Invitrogen) and 15% fetal bovine serum (Gibco by Invitrogen). The fetal rat skin keratinocyte, FRSK cell line was obtained from the Japan HSRRB (Health Science Research Resources Bank) and cultured in Eagle's minimal essential media (MEM, Gibco by Invitrogen) supplemented with 10% fetal bovine serum (FBS) (Gibco by Invitrogen) and 1% antibiotic antimycotic (Gibco by Invitrogen). B16F10 cells, a murine melanoma cell line, were purchased from American Type Culture Collection (ATCC, Rockville, Md., USA) and was cultured in Eagle's Minimum Essential Medium (MEM; Sigma, St. Louis, Mo.) supplemented with 10% fetal bovine serum (FBS; HyClone Lab. Inc., Logan, Utah), 0.02% antibiotic-antimycotic liquid (penicillin, 10 000 U mL^−1; streptomycin, 10 000 μg mL^−1 and amphotericin B, 25 μg mL^−1; Invitrogen, Carlsbad, Calif.).
To investigate the induction of melanogenesis and the oxidative stress by direct UV irradiation, melanoma cells and keratocytes were irradiated with 8 J cm^−2 of UVA (FL15BLB, 352 nm, 15 W; Toshiba, Tokyo, Japan) and 10 mJ cm^−2 of UVB (G15T8E, 306 nm, 15 W; Sankyo Denki, Tokyo, Japan) in a HANKS' balanced salt solution (Sigma). The UV intensity was measured by using a Model UVX Digital Radiometer (UVP Inc., Upland, Calif.).
B16F10 and FRSK cells were exposed to Hepasim compounds A-D by two different concentrations (3 or 10 μM) for 72 hrs prior to UVA irradiation. DMEM was replaced with phosphate buffered saline (PBS) to avoid generation of medium-derived toxic photoproducts prior to UV irradiation. Cells were collected 24 hrs after UVA irradiation and assayed. For preparation of cell lysate, the harvested cells were pelleted by centrifugation and lysed in lysis buffer containing 50 mM Tris-HCl, 10 mM ethylene diaminetetraacetic acid (EDTA), 1% (v/v) Tri-ton X-100, phenylmethylsulfonyl fluoride (PMSF) (100 mg/ml) and pepstatin A (1 mg/ml) in DMSO and leupeptin (1 mg/ml) in H2O, pH 6.8. The cells were centrifuged at 10,000 rpm for 10 min and the total cell lysate was collected and stored at −80° C.
The rate of L-DOPA oxidation was measured to assess cellular tyrosinase activity in B16F10 cells exposed to UV. The assay was performed as below described, 20 mM L-DOPA used as the substrates was added to each lysate in a 96-well plate and absorbance of dopachrome formation was measured spectrophotometrically at 475 nm every 10 min for 1 h at 37° C. by a spectrophotometer. The tyrosinase activity was calculated by comparison to a standard curve using tyrosinase (2034 U/mg) and was expressed as unit/mg protein. The data are expressed as a percentage of the tyrosinase activity (unit/mg protein) of non-irradiated and untreated control cells (100%).

collagen I and III = test: Collagen I and collagen III quantification (ELISA) in rabbit ear scar; format: in vivo, New Zealand white rabbits
Description: (§1) The rabbit ear model of hypertrophic scarring was established. In brief, 12 New Zealand white rabbits, weighing 2.5 to 3.0 kg, were prepared for wounding under sterile conditions. Four 1 cm full thickness circular wounds were created down to the cartilage on the ventral side of each ear using a 1 cm punch biopsy. The perichondrial membrane was then dissected off the cartilage using a surgical blade. The test agents including compound B, C and ACM ethanol extract were applied to the wounds of the experimental group ([…] to each wound) every day in concentrations of 1% w/v for 14 days, while the control group received equal amounts of 1% w/v saline.
The quantification of collagen I and III used an ELISA Kit (R & D Systems Inc., Minneapolis, Minn., USA) according to the operation manual.

hypertrophic scarring = test: Rabbit ear model of hypertrophic scarring: scar and epidermal thickness, histology; format: in vivo, New Zealand white rabbits; conditions: for mean epidermal thickness (ETI) / mean scar thickness (SEI): 1% w/v applied to wounds every day for 14 days; for mean epidermal thickness (ETI): control 5.08±0.44; for mean scar thickness (SEI): day 14, control 3.71±0.31; for histology: dermis layer of scars: treated for 14 day, 1% w/v
Description: as §1

tyrosinase activity in UV-irradiated B16F10 cells (tyrosinase; 3 μM) | tyrosinase activity in UV-irradiated B16F10 cells (tyrosinase; 10 μM) | Compound | collagen III density (collagen I and III; day 7, 1% w/v topical) | collagen I density (collagen I and III; day 14, 1% w/v topical) | collagen III density (collagen I and III; day 14, 1% w/v topical) | mean epidermal thickness (ETI) (hypertrophic scarring) | mean scar thickness (SEI) (hypertrophic scarring) | histology: dermis layer of scars (hypertrophic scarring)
51.65±4.6% | 42.32±6.7% | CC(C)=CCOc1ccc(C2=C(CC(C)C)C(=O)NC2=O)cc1 [Compound B, 3-isobutyl-4-[4-(3-methyl-2-butenyloxy)phenyl]-1H-pyrrol-2,5-dione] | insignificantly decreased | significantly decreased | significantly reduced | 2.23±0.31 | 1.93±0.51 | not significantly thickened
48.55±3.7% | 40.55±3.9% | CC(C)=CCOc1ccc(C2=C(CC(C)C)C(=O)N(O)C2=O)cc1 [Compound C, 3-isobutyl-4-[4-(3-methyl-2-butenyloxy)phenyl]-1H-pyrrol-1-ol-2,5-dione] | insignificantly decreased | significantly decreased | significantly reduced | 3.10±0.14 | 2.10±0.24 | not significantly thickened
